According to patent US10702521B2, “Methods for treating neisseria gonorrhoeae infection with substituted 1,2-dihydro-2A,5,8A-triazaacenaphthylene-3,8-diones” (priority 2014, dated 2020):
Structures can show the parent of a compound that is named as a salt. Where two headings read alike, the source gives them in different places.

Legend:
[1] = system: Staphylococcus aureus, Streptococcus pneumoniae, Streptococcus pyogenes, Enterococcus faecalis, Enterococcus faecium, Haemophilus influenzae, Moraxella …; assay: Antimicrobial Activity Assay: whole-cell MIC by broth microdilution (CLSI M7-A7); format: cell-based, Gram-positive and Gram-negative organisms; conditions: against a strain of at least one of the organisms listed
Procedure: Whole-cell antimicrobial activity was determined by broth microdilution using the Clinical and Laboratory Standards Institute (CLSI) recommended procedure, Document M7-A7, “Methods for Dilution Susceptibility Tests for Bacteria that Grow Aerobically”. The compounds were tested in serial two-fold dilutions ranging from 0.016 to 16 mcg/ml.
The minimum inhibitory concentration (MIC) was determined as the lowest concentration of compound that inhibited visible growth. A mirror reader was used to assist in determining the MIC endpoint.
Compounds were evaluated against Gram-positive organisms, selected from Staphylococcus aureus, Streptococcus pneumoniae, Streptococcus pyogenes, Enterococcus faecalis and Enterococcus faecium.
In addition, compounds were evaluated against Gram-negative organisms selected from Haemophilus influenzae, Moraxella catarrhalis, Escherichia coli, Pseudomonas aeruginosa, Proteus mirabilis, Enterobacter cloacae, Enterobacter aerogenes, Klebsiella pneumoniae and Stenotrophomonas maltophilia.

[2] = system: Mycobacterium tuberculosis H37Rv; assay: Mycobacterium tuberculosis H37Rv Inhibition Assay (resazurin MIC); format: cell-based
[3] = Estimation of PK parameters from blood samples in mice; format: in vivo; conditions: estimated
Procedure: In one study, blood samples were collected terminally from a separate group of mice at 1, 2, 6 and 12 hours post Example 39 administration (n=3 per time point and dose) to allow for estimation of PK parameters.

N. gonorrhoeae MS11 [4] = assay: MIC / susceptibility of N. gonorrhoeae MS11 (strain of the mouse model); format: cell-based, Neisseria gonorrhoeae
N. gonorrhoeae MS11 [5] = assay: Mouse model of N. gonorrhoeae vaginal colonization; format: in vivo, mice; conditions: for mice in which colonization with N. gonorrhoeae MS11 was eliminated by the end of the study: two studies
Procedure: A mouse model of N. gonorrhoeae vaginal colonization was performed to evaluate the efficacy of compounds of the present invention. Two independent studies were performed by the same laboratory.
In particular, Example 39 (i.e., (2R)-2-({4-[(3,4-Dihydro-2H-pyrano[2,3-c]pyridin-6-ylmethyl)amino]-1-piperidinyl}methyl)-1,2-dihydro-3H, 8H-2a,5,8a-triazaacenaphthylene-3,8-dione hydrochloride) was tested in this model following a single oral dose or a total of two oral doses administered on the same day. Female mice were primed for colonization using estradiol; trimethoprim sulfate and streptomycin were administered to control commensals. On day 0, mice were inoculated intravaginally with N. gonorrhoeae MS11 (Example 39—MIC 1 μg/ml). Successful colonization was confirmed via vaginal swab culture on days 1 and 2. Single oral doses at 100 mg/kg and 200 mg/kg or a total of two oral doses at 100 mg/kg each of Example 39 were administered on day 2. Vaginal swabs for quantitative culture were collected daily through day 10 (8 days post treatment).

Neisseria gonorrhoeae = assay: In vitro MIC by CLSI agar dilution against Neisseria gonorrhoeae isolates; format: cell-based; conditions: for MIC90: Neisseria gonorrhoeae
[6] = read-out: MIC value, H37Rv strain, six days incubation, resazurin fluorescence after 48 hours
[7] = 144 h, read-out: MIC value, H37Rv strain, six days incubation, resazurin fluorescence after 48 hours
[8] = H37Rv strain, six days incubation, resazurin fluorescence after 48 hours, read-out: MIC value

O=c1ccc2ccc(=O)n3c2n1C[C@H]3CN1CCC(NCc2cc3c(cn2)COC3)CC1 [Example 9, (1R)-1-({4-[(1,3-Dihydrofuro[3,4-c]pyridin-6-ylmethyl)amino]-1-piperidinyl}methyl)-1,2-dihydro-4H,9H-imidazo[1,2,3-ij]-1,8-naphthyridine-4,9-dione hydrochloride]
MIC [1]: ≤ 4 µg/mL

O=C1CSc2cnc(CNC3CCN(C[C@@H]4Cn5c(=O)ccc6ccc(=O)n4c65)CC3)nc2N1 [Example 34, (1R)-1-[(4-{[(7-Oxo-6,7-dihydro-1H-pyrimido[5,4-b][1,4]thiazin-2-yl)methyl]amino}-1-piperidinyl)methyl]-1,2-dihydro-4H,9H-imidazo[1,2,3-ij]-1,8-naphthyridine-4,9-dione dihydrochloride]
MIC [2, 6]: < 2 µg/mL

O=c1cnc2ccc(=O)n3c2n1C[C@H]3CN1CCC(NCc2cc3c(cn2)OCCC3)CC1 [Example 37, (1R)-1-({4-[(3,4-Dihydro-2H-pyrano[2,3-c]pyridin-6-ylmethyl)amino]-1-piperidinyl}methyl)-1,2-dihydro-3H,8H-2a,5,8a-triazaacenaphthylene-3,8-dione hydrochloride]
MIC [2, 7]: < 2 µg/mL

O=c1ccc2ncc(=O)n3c2n1C[C@H]3CN1CCC(NCc2cc3c(cn2)OCCC3)CC1 [Example 39, (2R)-2-({4-[(3,4-Dihydro-2H-pyrano[2,3-c]pyridin-6-ylmethyl)amino]-1-piperidinyl}methyl)-1,2-dihydro-3H,8H-2a,5,8a-triazaacenaphthylene-3,8-dione hydrochloride]
fAUC0-24 ([3]; single oral dose of 100 mg/kg): 8000 ng·h/mL | fAUC0-24 ([3]; single oral dose of 200 mg/kg): 22000 ng·h/mL | fAUC0-24 ([3]; two 100 mg/kg oral doses on the same day): 16000 ng·h/mL | MIC (N. gonorrhoeae MS11 [4]; Neisseria gonorrhoeae, N. gonorrhoeae MS11): 1 µg/mL | change in susceptibility of N. gonorrhoeae MS11 colonies recovered from treated mice (N. gonorrhoeae MS11 [4]; compared with stock cultures of the organism): did not demonstrate any change in susceptibility | course of colonization after initial clearance (N. gonorrhoeae MS11 [5]; first study, one mouse in each dose group, not observed in the follow-up study): regrowth to a high number of organisms by the end of the study | mice in which colonization with N. gonorrhoeae MS11 was eliminated by the end of the study (N. gonorrhoeae MS11 [5]; single oral dose of 100 mg/kg on day 2): 70-80% | mice in which colonization with N. gonorrhoeae MS11 was eliminated by the end of the study (N. gonorrhoeae MS11 [5]; single oral dose of 200 mg/kg on day 2): 90-100% | mice in which colonization with N. gonorrhoeae MS11 was eliminated by the end of the study (N. gonorrhoeae MS11 [5]; two 100 mg/kg oral doses administered on the same day): 100% | MIC [2, 8]: < 2 µg/mL | MIC90 fold higher than that of ceftriaxone (Neisseria gonorrhoeae; 30 isolates of N. gonorrhoeae): at least 16 fold | MIC90 fold lower than ciprofloxacin (Neisseria gonorrhoeae; 30 isolates of N. gonorrhoeae): at least 8 fold | MIC90 (Neisseria gonorrhoeae; 30 isolates of N. gonorrhoeae collected 2003 through 2007, read-out: MIC90 (MIC which inhibits 90% of the isolates tested)): 0.5 µg/mL | MIC90 (Neisseria gonorrhoeae; second study, all 145 isolates of N. gonorrhoeae, majority collected in 2013, read-out: MIC90): 0.5 µg/mL | MIC90 (Neisseria gonorrhoeae; second study, subset of 37 ciprofloxacin-nonsusceptible isolates, read-out: MIC90): 1 µg/mL | modal value (MIC) (Neisseria gonorrhoeae; against the 9 ciprofloxacin-resistant N. gonorrhoeae tested): remained unchanged

O=c1ccc2ncc(=O)n3c2n1C[C@H]3CN1CCC(NCc2ccc3c(c2)OCCO3)CC1 [Example 40, (2R)-2-({4-[(2,3-Dihydro-1,4-benzodioxin-6-ylmethyl)amino]-1-piperidinyl}methyl)-1,2-dihydro-3H,8H-2a,5,8a-triazaacenaphthylene-3,8-dione hydrochloride]
MIC [2, 7]: < 2 µg/mL

Cl.N#Cc1cc(CNC2CCN(C[C@@H]3Cn4c(=O)ccc5ncc(=O)n3c54)CC2)cc2c1OCCO2 [Example 42, 7-{[(1-{[(2R)-3,8-Dioxo-1,2-dihydro-3H,8H-2a,5,8a-triazaacenaphthylen-2-yl]methyl}-4-piperidinyl)amino]methyl}-2,3-dihydro-1,4-benzodioxin-5-carbonitrile hydrochloride]
MIC [2, 8]: < 2 µg/mL

O=c1cnc2ccc(=O)n3c2n1C[C@H]3CN1CCC(NCc2ccc3c(c2)OCCO3)CC1 [Example 44, (1R)-1-({4-[(2,3-Dihydro-1,4-benzodioxin-6-ylmethyl)amino]-1-piperidinyl}methyl)-1,2-dihydro-3H,8H-2a,5,8a-triazaacenaphthylene-3,8-dione hydrochloride]
MIC [2, 6]: < 2 µg/mL

O=c1ccc2ccc(=O)n3c2n1C[C@H]3CN1CCC(NCc2nc3cccc(F)c3[nH]2)CC1 [Example 46, (1R)-1-[(4-{[(4-Fluoro-1H-benzimidazol-2-yl)methyl]amino}-1-piperidinyl)methyl]-1,2-dihydro-4H,9H-imidazo[1,2,3-ij]-1,8-naphthyridine-4,9-dione dihydrochloride]
MIC [2, 6]: < 2 µg/mL

O=c1ccc2ncc(=O)n3c2n1C[C@H]3CN1CCC(NCc2cnc3nsnc3c2)CC1 [Example 49, (2R)-2-({4-[([1,2,5]Thiadiazolo[3,4-b]pyridin-6-ylmethyl)amino]-1-piperidinyl}methyl)-1,2-dihydro-3H,8H-2a,5,8a-triazaacenaphthylene-3,8-dione]
MIC ([2]; 144 h, H37Rv strain, six days incubation, resazurin fluorescence after 48 hours, read-out: MIC value): < 2 µg/mL

O=c1ccc2ccc(=O)n3c2n1C[C@H]3CN1CCC(NCc2ccc3c(c2)OCCC3)CC1 [Example 50, (1R)-1-({4-[(3,4-Dihydro-2H-chromen-7-ylmethyl)amino]-1-piperidinyl}methyl)-1,2-dihydro-4H,9H-imidazo[1,2,3-if]-1,8-naphthyridine-4,9-dione hydrochloride]
MIC [2, 7]: < 2 µg/mL

N#Cc1cc(CNC2CCN(C[C@@H]3Cn4c(=O)cnc5ccc(=O)n3c54)CC2)cc2c1OCCO2 [Example 56, 7-{[(1-{[(1R)-3,8-Dioxo-1,2-dihydro-3H,8H-2a,5,8a-triazaacenaphthylen-1-yl]methyl}-4-piperidinyl)amino]methyl}-2,3-dihydro-1,4-benzodioxin-5-carbonitrile hydrochloride]
MIC [2, 7]: < 2 µg/mL

O=c1ccc2ccc(CNC3CCN(C[C@@H]4Cn5c(=O)ccc6ccc(=O)n4c65)CC3)cc2o1 [Example 59, (1R)-1-[(4-{[(2-Oxo-2H-chromen-7-yl)methyl]amino}-1-piperidinyl)methyl]-1,2-dihydro-4H,9H-imidazo[1,2,3-ij]-1,8-naphthyridine-4,9-dione]
MIC [2, 8]: < 2 µg/mL
